Data on 8 compounds can be found in ChEMBL document CHEMBL1142021, “Aglycon specificity profiling of alpha-glucosidases using synthetic probes” (Bioorg Med Chem Lett, 2005).

The species entered for one assay is Homo sapiens. The assay can be described thus: Inhibition of Glucosidase 2 at 2 umol/mI.
The target in assay [1] is Alpha-glucosidase (Beta vulgaris) (UniProt O04931). The assay can be described thus: Inhibition of Sugar beet glucosidase (of family 31 alpha-glucosidase) at 1 umol/mL.
In assay [2] the target is T1, Beta-galactosidase (Homo sapiens) (UniProt P16278).
T1 sequence (whole entry): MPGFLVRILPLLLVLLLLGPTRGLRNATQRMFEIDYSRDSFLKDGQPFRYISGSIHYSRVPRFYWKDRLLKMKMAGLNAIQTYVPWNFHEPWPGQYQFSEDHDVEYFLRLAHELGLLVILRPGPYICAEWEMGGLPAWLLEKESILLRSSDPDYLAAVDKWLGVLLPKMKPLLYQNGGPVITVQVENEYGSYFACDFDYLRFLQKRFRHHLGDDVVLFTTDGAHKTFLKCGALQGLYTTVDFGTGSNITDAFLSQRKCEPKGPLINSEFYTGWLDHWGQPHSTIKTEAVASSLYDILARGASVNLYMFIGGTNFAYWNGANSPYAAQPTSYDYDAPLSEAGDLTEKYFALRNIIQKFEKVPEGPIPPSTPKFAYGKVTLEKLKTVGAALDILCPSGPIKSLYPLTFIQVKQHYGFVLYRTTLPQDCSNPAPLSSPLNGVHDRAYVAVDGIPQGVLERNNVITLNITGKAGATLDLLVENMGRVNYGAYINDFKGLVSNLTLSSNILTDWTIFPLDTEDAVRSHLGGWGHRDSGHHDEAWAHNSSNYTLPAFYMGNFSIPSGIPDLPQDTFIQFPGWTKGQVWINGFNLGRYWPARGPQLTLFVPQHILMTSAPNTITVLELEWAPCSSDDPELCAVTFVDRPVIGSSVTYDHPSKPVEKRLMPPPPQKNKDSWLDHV
The assay can be described thus: Inhibition of beta-Galactosidase at 5 umol/mL.

Assay [3] has as its target T2, Mannosyl-oligosaccharide glucosidase (Homo sapiens) (UniProt Q13724).
T2 sequence (whole entry): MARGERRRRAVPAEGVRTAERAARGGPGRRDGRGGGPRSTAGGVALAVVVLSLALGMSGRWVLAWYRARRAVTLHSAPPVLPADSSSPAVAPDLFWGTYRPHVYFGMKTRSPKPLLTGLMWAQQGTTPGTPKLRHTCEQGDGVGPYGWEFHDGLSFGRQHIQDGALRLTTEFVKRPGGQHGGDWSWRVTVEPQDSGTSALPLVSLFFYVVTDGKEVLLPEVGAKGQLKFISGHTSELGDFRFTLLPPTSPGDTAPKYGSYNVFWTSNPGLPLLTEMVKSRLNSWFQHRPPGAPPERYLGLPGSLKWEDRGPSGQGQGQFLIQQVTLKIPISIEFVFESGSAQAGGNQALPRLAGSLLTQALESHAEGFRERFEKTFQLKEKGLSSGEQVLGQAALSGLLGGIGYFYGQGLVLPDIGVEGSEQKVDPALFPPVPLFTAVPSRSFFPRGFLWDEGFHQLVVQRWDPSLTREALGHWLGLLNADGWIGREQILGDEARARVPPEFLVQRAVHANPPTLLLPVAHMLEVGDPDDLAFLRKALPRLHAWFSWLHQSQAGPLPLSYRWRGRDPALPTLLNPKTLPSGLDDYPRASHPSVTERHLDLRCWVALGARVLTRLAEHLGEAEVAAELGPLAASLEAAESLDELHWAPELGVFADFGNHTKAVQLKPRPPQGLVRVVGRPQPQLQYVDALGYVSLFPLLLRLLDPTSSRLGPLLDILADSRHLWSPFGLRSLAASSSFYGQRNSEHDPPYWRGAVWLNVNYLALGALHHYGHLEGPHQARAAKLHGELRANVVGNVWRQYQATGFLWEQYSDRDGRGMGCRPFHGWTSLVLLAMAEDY
The assay is described as follows: Inhibition of Glucosidase 1 (of Endoplasmic reticulum processing alpha-glucosidase) at 2 umol/mL.

The target in assay [4] is T3, Alpha-glucosidase (Oryza sativa Japonica Group) (UniProt Q9LGC6).
T3 sequence (whole entry): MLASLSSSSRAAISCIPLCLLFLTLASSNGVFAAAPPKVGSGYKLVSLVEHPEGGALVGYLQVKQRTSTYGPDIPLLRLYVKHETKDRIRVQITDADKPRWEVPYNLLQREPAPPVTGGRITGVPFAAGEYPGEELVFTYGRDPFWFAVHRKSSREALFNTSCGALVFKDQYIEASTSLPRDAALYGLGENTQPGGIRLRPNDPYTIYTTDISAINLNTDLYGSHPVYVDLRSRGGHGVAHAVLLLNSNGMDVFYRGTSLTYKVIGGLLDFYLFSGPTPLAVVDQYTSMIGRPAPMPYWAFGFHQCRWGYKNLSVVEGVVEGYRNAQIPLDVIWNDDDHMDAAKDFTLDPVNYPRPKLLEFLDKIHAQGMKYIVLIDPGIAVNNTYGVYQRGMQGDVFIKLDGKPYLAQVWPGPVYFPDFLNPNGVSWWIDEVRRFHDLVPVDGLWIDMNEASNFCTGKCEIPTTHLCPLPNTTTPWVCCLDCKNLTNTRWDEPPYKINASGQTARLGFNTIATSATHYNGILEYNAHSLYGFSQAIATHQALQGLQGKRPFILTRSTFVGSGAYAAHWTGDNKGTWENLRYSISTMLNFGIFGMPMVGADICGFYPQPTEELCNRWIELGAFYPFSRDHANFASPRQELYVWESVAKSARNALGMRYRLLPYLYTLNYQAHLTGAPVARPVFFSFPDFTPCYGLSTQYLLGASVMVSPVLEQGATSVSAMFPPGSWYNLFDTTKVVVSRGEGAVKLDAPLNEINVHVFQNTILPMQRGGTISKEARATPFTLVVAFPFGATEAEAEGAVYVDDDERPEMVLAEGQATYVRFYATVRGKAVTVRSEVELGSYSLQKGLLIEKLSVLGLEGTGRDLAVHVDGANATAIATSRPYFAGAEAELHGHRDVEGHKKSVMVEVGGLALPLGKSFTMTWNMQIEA
The assay can be described thus: Inhibition of Rice glucosidase (of family 31 alpha-glucosidase) at 1 umol/mL.

Some results are limits rather than exact numbers.

Chain of Alpha-glucosidase (Beta vulgaris) (O04931 whole entry): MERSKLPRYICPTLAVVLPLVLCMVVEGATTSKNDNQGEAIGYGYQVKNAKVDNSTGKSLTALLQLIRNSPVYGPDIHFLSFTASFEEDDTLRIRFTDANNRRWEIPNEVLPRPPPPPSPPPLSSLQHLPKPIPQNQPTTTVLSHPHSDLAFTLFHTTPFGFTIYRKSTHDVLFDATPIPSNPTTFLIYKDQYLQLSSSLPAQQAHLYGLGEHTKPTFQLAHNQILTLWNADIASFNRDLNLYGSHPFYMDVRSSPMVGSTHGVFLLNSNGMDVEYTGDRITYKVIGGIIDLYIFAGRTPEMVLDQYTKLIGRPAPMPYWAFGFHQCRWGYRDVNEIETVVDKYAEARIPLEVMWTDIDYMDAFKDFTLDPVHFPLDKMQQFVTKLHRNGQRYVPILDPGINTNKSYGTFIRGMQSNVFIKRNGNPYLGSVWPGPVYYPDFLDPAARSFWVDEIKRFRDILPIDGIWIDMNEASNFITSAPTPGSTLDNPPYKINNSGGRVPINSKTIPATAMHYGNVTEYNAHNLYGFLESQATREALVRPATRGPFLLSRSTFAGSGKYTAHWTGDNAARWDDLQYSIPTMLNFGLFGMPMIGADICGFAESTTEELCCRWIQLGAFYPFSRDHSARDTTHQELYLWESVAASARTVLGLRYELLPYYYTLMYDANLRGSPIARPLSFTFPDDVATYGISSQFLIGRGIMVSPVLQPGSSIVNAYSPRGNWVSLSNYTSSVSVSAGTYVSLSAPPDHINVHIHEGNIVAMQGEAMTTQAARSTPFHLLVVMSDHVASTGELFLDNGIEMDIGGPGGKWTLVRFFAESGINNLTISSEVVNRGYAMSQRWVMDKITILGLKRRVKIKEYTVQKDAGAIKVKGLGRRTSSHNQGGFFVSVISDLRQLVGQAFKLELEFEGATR

Broadly, the inhibition is the drop in the measured response relative to a control, in per cent. A lower inhibition goes with little suppression. Regarding `CC(C)(C)C(=O)NCC1OC(CO)C(O)C(O)C1O` (stereo not drawn), the inhibition in the assay listed under Homo sapiens was less than 1%; in assay [1] (Beta vulgaris subsp. vulgaris), 3.2%; in assay [2], less than 1%; in assay [3] it was less than 1%; in assay [4] it was 3.8%.
Turning to `O=C(CCCCO)NCC1OC(CO)C(O)C(O)C1O` (stereo not drawn), the inhibition in the assay listed under Homo sapiens is less than 1%; in assay [1] (Beta vulgaris subsp. vulgaris), 3.1%; in assay [2] it was less than 1%; in assay [3], less than 1%; in assay [4], 18.3%.
As to `O=C(CO)NCC1OC(CO)C(O)C(O)C1O` (stereo not drawn), the inhibition in the assay filed under Homo sapiens is less than 1%; in assay [1] (Beta vulgaris subsp. vulgaris) it was 6.9%; in assay [2], less than 1%; in assay [3], less than 1%; in assay [4], 10.7%.
As for `O=C(NCC1OC(CO)C(O)C(O)C1O)c1ccccc1` (stereo not drawn), the inhibition is 5.9% in the assay filed under Homo sapiens, 9.8% in assay [1], less than 1% in assay [2] and 16% in assay [4].
On to `CC(=O)NCC1OC(CO)C(O)C(O)C1O` (stereo not drawn), for which the inhibition in the assay filed under Homo sapiens is less than 1%; in assay [1] (Beta vulgaris subsp. vulgaris) it was 8.8%; in assay [2], less than 1%; in assay [3], less than 1%; in assay [4] it was 21.8%.
For `O=C(CCCO)NCC1OC(CO)C(O)C(O)C1O` (stereo not drawn), the inhibition in the assay filed under Homo sapiens is less than 1%; in assay [1] (Beta vulgaris subsp. vulgaris) it was 3.6%; in assay [2], less than 1%; in assay [3], less than 1%; in assay [4], 7.6%.
As for `O=C(CCCCCO)NCC1OC(CO)C(O)C(O)C1O` (stereo not drawn), the inhibition in the assay listed under Homo sapiens is less than 1%; in assay [1] (Beta vulgaris subsp. vulgaris), 11.9%; in assay [2], less than 1%; in assay [3], less than 1%; in assay [4] it was 26%.
Turning to `O=C(CCO)NCC1OC(CO)C(O)C(O)C1O` (stereo not drawn), the inhibition in assay [1] (Beta vulgaris subsp. vulgaris) was 1.7%; in assay [2], less than 1%; in assay [3], less than 1%; in assay [4] it was 8.5%.
